Assay results taken from patent US4002752A, “Piperazinylimino rifamycins” (Gruppo Lepetit S.p.A., priority 1975, dated 1977).
Converted amounts (≈) assume the structure as drawn.

What was measured:
Staphylococcus aureus = experiment: experimental Staphylococcus aureus infections in mice; format: in vivo; conditions: po; Staphylococcus aureus infection in mice
in vivo = conditions: mouse
[1] = tested on: Mycobacterium tuberculosis H37 Rv; experiment: minimal inhibitory concentration in vitro against Mycobacterium tuberculosis H37 Rv; format: cell-based; conditions: H37RV
Procedure: For instance, the value of the minimal inhibitory concentration in vitro of the "cyclopentyl derivative" against Mycobacterium tuberculosis H37 Rv is 0.05 μg/ml, while that of rifampicin is 0.5 μg/ml.

[2] = tested on: Mycobacterium tuberculosis H37 Rv; experiment: survival time of mice infected with Mycobacterium tuberculosis H37 Rv; format: in vivo; conditions: once a week administration per os versus daily administration of rifampicin at the same dose level
Description: The unexpected biological characteristics of the novel rifamycins have been evidenced by considering the survival time after a daily administration of rifampicin in comparison with a once a week administration of the same dose level per os of 3-(4-cyclopentyl-1-piperazinyl)iminomethylrifamycin SV (hereinafter referred to as "cyclopentyl derivative") to mice infected with Mycobacterium tuberculosis H37 Rv.

toxicity in mice (LD50) = conditions: mouse, in vivo

SMILES: COC1C=COC2(C)Oc3c(C)c(O)c4c(O)c(c(C=NN5CCN(C6CCC6)CC5)c(O)c4c3C2=O)NC(=O)C(C)=CC=CC(C)C(O)C(C)C(O)C(C)C(OC(C)=O)C1C (stereo not drawn) [cyclobutyl derivative, 3-(4-cyclobutyl-1-piperazinyl)iminomethylrifamycin SV]
- ED50 (Staphylococcus aureus): 0.16 mg/kg
- LD50 (in vivo; ip): > 650 mg/kg
- LD50 (in vivo; po): > 2000 mg/kg

SMILES: COC1C=COC2(C)Oc3c(C)c(O)c4c(O)c(c(C=NN5CCN(C6CCCC6)CC5)c(O)c4c3C2=O)NC(=O)C(C)=CC=CC(C)C(O)C(C)C(O)C(C)C(OC(C)=O)C1C (stereo not drawn) [cyclopentyl derivative, 3-(4-cyclopentyl-1-piperazinyl)iminomethylrifamycin SV]
- LD50 (in vivo; ip): > 750 mg/kg
- LD50 (in vivo; po): > 2000 mg/kg
- MIC [1]: 0.05 µg/mL (≈ 0.057 µM)
- survival time [2]: about the same survival time

SMILES: CO[C@H]1/C=C/O[C@@]2(C)Oc3c(C)c(O)c4c(O)c(c(/C=N/N5CCN(C)CC5)c(O)c4c3C2=O)NC(=O)/C(C)=C\C=C\[C@H](C)[C@H](O)[C@@H](C)[C@@H](O)[C@@H](C)[C@H](OC(C)=O)[C@@H]1C [rifampicin]
- LD50 (toxicity in mice (LD50); ip): 416 mg/kg
- LD50 (toxicity in mice (LD50); po): 907 mg/kg
